Results taken from patent EP4076431B1, “COMPOSITION AND METHOD FOR THE PREVENTION AND TREATMENT OF TYPE 2 DIABETES” (Vector Vitale IP LLC, priority 2019, dated 2021).
Where “and” joins values, the source holds several entries; their conditions need not be identical. Equal values may be shown once. Each block holds one compound with its values, some of them ahead of it.

How the values were obtained:
[1] = Accumulation of metals in liver and kidney tissues, intact rats; assay type: in vivo; conditions: day 1 and day 7 after discontinuation; intraperitoneal
Method: The total kidney, liver and muscle homogenates were prepared as follows. Organ excision and homogenization were carried out at a temperature of 1-4°C. Homogenization of tissues was carried out in 50 mM Tris-HCl buffer (pH 7.4) which contained 140 mM NaCl, 1 mM EDTA. The volume of the used buffer in ml was 5 times larger than the mass of isolated organs in grams. The isolated liver was perfused with chilled saline (0.9% NaCl) via the portal vein using a syringe. The minced liver was transferred to a homogenizer with a finely ground Teflon pestle and homogenized in chilled buffer. An isolated pair of kidneys was perfused with chilled saline, released from adipose tissue and minced with scissors. The minced tissue was transferred to a homogenizer with a finely ground Teflon pestle and homogenized in chilled buffer. The total kidney and liver homogenates were centrifuged at 600 g for 15 minutes. The liquid was decanted after the mince settled down and was centrifuged again at 15,000 g for 15 minutes. These two procedures allowed us to get rid of nuclear and mitochondrial debris. Aliquots of the prepared homogenates were frozen in nitrogen (Rybalchenko V.K., Koganov M.M. Structure and function of membrane 1988. - 312 pp).

Glucose tolerance test = conditions: dose 5 mg/kg in a volume of 2 ml, individual animals 1-5
TGF = test: Cytokine profile, immunoenzyme method, obesity model: TGF; conditions: Table 7, serum
IL-1 = test: Cytokine profile, immunoenzyme method, obesity model: IL-1; conditions: Table 7, serum
IL-6 = test: Cytokine profile, immunoenzyme method, obesity model: IL-6; conditions: Table 7, serum
IL-4 = test: Cytokine profile, immunoenzyme method, obesity model: IL-4; conditions: Table 7, serum
IFN-γ = test: Cytokine profile, immunoenzyme method, obesity model: IFN-γ; conditions: Table 7, serum
glycated hemoglobin = test: Glycated hemoglobin, streptozotocin-induced type I diabetes model; conditions: Table 22; streptozotocin diabetic rats; 800 µg of zinc per animal orally, 7 doses; n = 10
collagen fibers = test: Morphometric analysis of liver fibrosis, Van Gieson staining, obesity model; conditions: rats eating a standard diet, treated
[2] = Anthropometric values and food consumption, high-fat diet induced obesity model; conditions: Table 3
[3] = Blood glucose, streptozotocin-induced type I diabetes model, oral administration; conditions: Table 22; streptozotocin diabetic rats; 800 µg of zinc per animal orally, 7 doses every other day; n = 10
[4] = C+zinc: control rats, standard diet
[5] = DIO+zinc: diet-induced obesity rats

accumulation of zinc in kidney and liver tissues [1]: significantly increased
Compound: CC(=O)[O-].CC(=O)[O-].[Zn+2] [Zn acetate, Zn acetate (Zn(CH3COO)2), reference compound]
accumulation of other metals (manganese, copper) in kidney and liver tissues [1]: within the same concentrations as in the control group of animals | 60 min (1 h after glucose administration) (Glucose tolerance test; Table 2, blood glucose after glucose 3 g/kg): 7,2 (2×) and 6,9 and 7,3 and 6,8 | 0 min (1 h after effector administration) (Glucose tolerance test; Table 2, blood glucose before glucose load, fast overnight): 4,6 and 5,2 (2×) and 4,9 and 5,1

Compound: Zinc asparaginate [^64Zne]
accumulation of other metals (manganese, copper) in kidney and liver tissues [1]: within the same concentrations as in the control group of animals | accumulation of zinc in kidney and liver tissues [1]: significantly increased | Levels, Anti-inflammatory cytokines, TGF (TGF; C+^64Zne): 4.1±0.4 RU/mg protein | Levels, Anti-inflammatory cytokines, TGF (TGF; DIO+^64Zne): 5.7±0.3 # RU/mg protein | Levels, Pro-inflammatory cytokines, IL-1 (IL-1; C+^64Zne: control rats): 3.5±0.7 RU/mg protein | Levels, Pro-inflammatory cytokines, IL-1 (IL-1; DIO+^64Zne: diet-induced obesity rats): 4.2±0.4 RU/mg protein | Levels, Pro-inflammatory cytokines, IL-6 (IL-6; C+^64Zne): 4.3±0.2 RU/mg protein | Levels, Pro-inflammatory cytokines, IL-6 (IL-6; DIO+^64Zne): 5.1±0.4 RU/mg protein | Levels, Anti-inflammatory cytokines, IL-4 (IL-4; C+^64Zne): 4.6±0.8 RU/mg protein | Levels, Anti-inflammatory cytokines, IL-4 (IL-4; DIO+^64Zne): 5.6±1.6 RU/mg protein | Levels, Pro-inflammatory cytokines, IFN-γ (IFN-γ; C+^64Zne): 4.6±0.6 RU/mg protein | Levels, Pro-inflammatory cytokines, IFN-γ (IFN-γ; DIO+^64Zne): 4.1±1.2 RU/mg protein | Glycated hemoglobin (glycated hemoglobin): 0,51 ± 0,05 µmol fructose/g Hb | increase in the area of deposition of collagen fibers (collagen fibers): 2 fold | Amount of food consumed [2, 4]: 32 g/day | Calorie content of food [2, 4]: 490 kJ/day | Weight gain as of the end of the experiment [2, 4]: 59% | BMI ([2]; C+zinc: control rats, standard diet, ^64Zne administration): 0.59 g/cm^2 | Amount of food consumed [2, 5]: 29 g/day | Calorie content of food [2, 5]: 823 kJ/day | Weight gain as of the end of the experiment [2, 5]: 62% | BMI ([2]; DIO+zinc: diet-induced obesity rats, ^64Zne 2.25 mg/ml, 2 ml intragastrically every third day, 10th week): 0.65 g/cm^2 | Glucose [3]: 20 ± 3 mM
